From patent US20030040510A1, “Selective estrogen receptor modulators in combination with estrogens” (Endorecherche, Inc., priority 2000, published 2003)
Where “and” joins values, the source holds several entries; their conditions need not be identical. Equal entries are not always repeated. Entries after “also recorded” stand apart in the source; their conditions may differ. Marks after values point to notes of the source that are not given here.

Legend:
[1] = tested on: ZR-75-1 breast tumor xenografts; assay: Growth of human ZR-75-1 breast tumor xenografts in OVX nude mice supplemented with estrone (DHEA, EM-800; Example 1); details: OVX + E1; for Inhibition of E1-stimulated ZR-75-1 tumor size / Average tumor weight: 9.5 months
[2] = tested on: bone metabolism in the rat; details: cited from earlier work
ovariectomized rats = assay: 5-diol alone or with Flutamide and/or EM-800 for 12 months in ovariectomized rats (bone mass, serum markers)
[3] = tested on: rat mammary gland and endometrium; assay: 12-week EM-800 treatment of intact rats: serum 17β-estradiol, mammary gland, endometrium; type: in vivo; details: 12 weeks
Procedure: B. Animal treated with EM-800 (0.5 mg/kg, b w per day) for 12 weeks. […] Insert.
B. Animal treated with EM-800 (0.5 mg/kg, b w per day) during 12 weeks.

[4] = tested on: bone metabolism in the rat; assay: Biochemical parameters of bone metabolism (urine, serum) after DHEA and/or EM-800; type: in vivo; details: DHEA 10 mg, EM-800 75 μg
Excerpt: Data are expressed as the means±SEM.**: P<0.01 experimental versus respective control.
It is particularly important to indicate that the combination of DHEA and EM-800 exerted unexpected beneficial effects on important biochemical parameters of bone metabolism. […] Moreover, no effect of DHEA could be detected on daily urinary calcium or phosphorus excretion (Luo et al., Endocrinology 138: 4435-4444, 1997). EM-800, decreased the urinary hydroxyproline/creatinine ratio by 48% while, similarly to DHEA, no effect of EM-800 was seen on urinary calcium or phosphorus excretion. EM-800, moreover, had no effect on serum alkaline phosphatase activity, a marker of bone formation while DHEA increased the value of the parameter by about 75% (Luo et al., Endocrinology 138: 4435-4444, 1997).

[5] = tested on: uterus and vagina of ovariectomized nude mice; assay: Uterine, vaginal and body weight in the xenograft-bearing OVX nude mice (Example 1); details: OVX + E1
[6] = tested on: breast and endometrial tissues; assay: Antiestrogens tested for SERM function and estrogenic activity in breast and endometrium
MCF-7 cells = assay: Proliferation of human breast cancer MCF-7 cells (DNA content); type: cell-based; details: MCF-7, Experiment 1
Procedure: The MCF-7 human breast adenocarcinoma cell line was derived from the pleural effusion of a patient. MCF-7 cells were used between passages 148 and 165 and subcultured weekly
Cells in their late logarithmic growth phase were harvested with 0.1% pancreatin (Sigma) and resuspended in the appropriate medium containing 50 ng bovine insulin/ml and 5% (v/v) FBS treated twice with dextran-coated charcoal to remove endogenous steroids. Cells were plated in 24-well Falcon plastic culture plates (2 cm^2/well) at the indicated density and allowed to adhere to the surface of the plates for 72 h. Thereafter, medium was replaced with fresh medium containing the indicated concentrations of compounds diluted from 1000×stock solutions in 99% redistilled ethanol in the presence or absence of E2. Control cells received only the ethanolic vehicle (0.1% EtOH,v/v). Cells were incubated for the specified time intervals with medium changes at 2-or 3-day intervals. Cell number was determined by measurement of DNA content.
Dose-response curves as well IC50 values were calculated using a weighted iterative nonlinear least-squares regression. All results are expressed as means±SEM.

[7] = tested on: uterus and vagina of ovariectomized mice; assay: Uterine and vaginal weight in ovariectomized mice treated or not with estrone (9 days oral); type: in vivo, BALB/c mice; details: for Inhibition of estrone-stimulated uterine weight / Inhibition of estrone-stimulated vaginal weight: 9 days, OVX mice + E1
Procedure: (St-Constant, Quebec, Canada) and housed 5 per cage in a temperature (23±1° C.)—and light (12 h light/day, lights on at 7:15)—controlled environment. The mice were fed rodent chow and tap water ad libitum. […] Ten mice were kept intact as controls. […] Compounds were dissolved in ethanol (4% final concentration) and administered in 0.4% methylcellulose. Mice in the intact and OVX control groups received the vehicle alone (4% ETOH-0.4% methylcellulose) during the 9-day period. The animals were killed by exsanguination at the abdominal aorta on the 11th morning following ovariectomy.

[8] = tested on: ovariectomized female rats; assay: Prevention of bone loss, body fat, serum cholesterol and ALP, 26-week treatment of OVX rats (Example 5A, experiment 2); type: in vivo, Sprague-Dawley rats; details: 26 weeks
Procedure: Ten to twelve week-old female Sprague-Dawley rats (Crl:CD(SD)Br) (Charles River Laboratory, St-Constant, Canada) weighing approximately 220-270 g at start of treatment were used. The animals were acclimatized to the environmental conditions (temperature: 22±3° C.; humidity: 50±20%; 12-h light-12-h dark cycles, lights on at 07:15 h) for at least 1 week before starting the experiments. The animals were housed individually and were allowed free access to tap water and a pelleted certified rodent feed (Lab Diet 5002, Ralston Purina, St-Louis, Mo.). Experiments were conducted in an animal facility approved by the Canadian Council on Animal Care (CCAC) and the Association for Assessment and Accreditation of Laboratory Animal Care (AAALAC) in accordance with the CCAC Guide for Care and Use of Experimental Animals.
On day 1 of the study, the animals of the appropriate groups were bilaterally OVX under isoflurane anesthesia. Tested compounds were administered as suspension in 0.4% methylcellulose by oral gavage. Treatments were initiated on day 2 of the study and were performed once daily during 26 weeks. In both experiments, animals not receiving a test article were treated with the appropriate vehicle alone during the same period.
After 3 months (experiment 1) or 26 weeks (experiment 2) of treatment, individual rats under Isoflurane anesthesia had their whole body skeleton and lumbar spine scanned using dual energy x-ray absorptiometry (DEXA; QDR 4500A, Hologic, Waltham, Mass.) and a Regional High Resolution Scan software. The bone mineral density (BMD) of the lumbar spine (vertebrae L2 to L4) and the total body composition (fat percentage) were determined.
After 3 months (experiment 1) or 26 weeks (experiment 2) of treatment, blood samples were collected at the jugular vein from overnight fasted animals (under Isoflurane anesthesia). Samples were processed for serum preparation and frozen at −80° C. until assay. Serum cholesterol levels and alkaline phospatase activity (ALP) were determined using the Boehringer Mannheim Diagnostic Hitachi 911 Analyzer (Boehringer Mannheim Diagnostic Laboratory Systems).

[9] = Concentration of EM-652 in the circulation, 6-month rat study; type: in vivo; details: intact rats, EM-652 0.5 mg/kg daily, 6-month study
[10] = EM-800 0.5 mg/kg per day, 0.5 mg/kg/day
[11] = OVX + ERA-923 3 μg (no estrone)
[12] = OVX + ERA-923 30 μg (no estrone)
[13] = alone, absence of estrone, both doses used
[14] = OVX rats, Premarin 0.25 mg/kg, SERMs 2.5 mg/kg oral

For `CC1=C(c2ccc(OC(=O)C(C)(C)C)cc2)[C@H](c2ccc(OCCN3CCCCC3)cc2)Oc2cc(OC(=O)C(C)(C)C)ccc21` [EM-800, (+)-7-pivaloyloxy-3-(4′-pivaloyloxyphenyl)-4-methyl-2-(4″-(2′″-piperidinoethoxy)phenyl)-2H-benzopyran], the “Inhibition of E1-stimulated ZR-75-1 tumor size” value ([1]; EM-800 15 μg oral daily) was 88% and 87.5%, the “Inhibition of E1-stimulated ZR-75-1 tumor size” value ([1]; EM-800 50 μg oral daily) was 93% and 93.5% and the “Inhibition of E1-stimulated ZR-75-1 tumor size” value ([1]; EM-800 100 μg oral daily) was 94%. The “Category of response: Partial” value ([1]; EM-800 15 μg) was 1 (5.9) Number and (%), the “Category of response: Stable” value ([1]; EM-800 15 μg) was 5 (29.4) Number and (%) and the Average tumor weight ([1]; EM-800 15 μg) was 0.08 ± 0.03 g. For the same compound, the “Category of response: Complete” value ([1]; EM-800 50 μg) was 4 (25.0) Number and (%), the “Category of response: Partial” value ([1]; EM-800 50 μg) was 3 (18.8) Number and (%) and the “Category of response: Progression” value ([1]; EM-800 50 μg) was 4 (25.0) Number and (%). The “Category of response: Stable” value ([1]; EM-800 50 μg) was 5 (31.2) Number and (%), the Average tumor weight ([1]; EM-800 50 μg) was 0.03 ± 0.01 g and the “Category of response: Complete” value ([1]; EM-800 100 μg) was 8 (50.0) Number and (%). The “Category of response: Partial” value ([1]; EM-800 100 μg) was 0 (0) Number and (%), the “Category of response: Progression” value ([1]; EM-800 100 μg) was 5 (31.2) Number and (%) and the “Category of response: Stable” value ([1]; EM-800 100 μg) was 3 (18.8) Number and (%). The Average tumor weight ([1]; EM-800 100 μg) was 0.04 ± 0.03 g, the “Decrease of urinary hydroxyproline/creatinine ratio” value [2] was 48% and the “Effect on daily urinary calcium or phosphorus excretion” value [2] was “no effect”. For the same compound, the “Increase of serum alkaline phosphatase activity” value [2] was “had no effect”, the “Additional stimulation of femoral BMD compared to 5-diol alone” value (ovariectomized rats; EM-800 100 μg s.c. daily added to 5-diol) was 28.4% and the “Effect on 5-diol action on bone volume, trabecular number and trabecular separation (histomorphometry)” value (ovariectomized rats; added to 5-diol, proximal tibia) was “further enhanced”. For the same compound, the “Decrease of serum cholesterol” value (ovariectomized rats; addition of EM-800 to 5-diol) was 62%, the “Elevation of circulating 17β-estradiol vs intact animals” value ([3]; EM-800 0.5 mg/kg orally daily) was 50% and the Endometrium histology [3, 10] was “luminal epithelium is markedly reduced in height; also recorded: marked atrophy of the endometrium”. The Mammary gland histology [3, 10] was “lobules (L) are reduced in size; also recorded: marked atrophy of the mammary gland”, the “Circulating levels of 17β-estradiol” value ([3]; intact rats, EM-800 0.5 mg/kg orally daily) was 143.5 ± 7.8 pg/mL and the “Serum tALP” value [4] was 114.11 ± 11.26 IU/L. For the same compound, the “Urine HP/Cr” value [4] was 6.81 ± 0.84** μmol/mmol, the Urine calcium [4] was 17.44 ± 4.5 μmol/24h/100g and the Urine phosphorus [4] was 102.03 ± 25.13 μmol/24h/100g. It also gave a Uterine weight ([5]; EM-800 15 μg) of 49 ± 3 mg, a Vaginal weight ([5]; EM-800 15 μg) of 23 ± 1 mg and a Uterine weight ([5]; EM-800 50 μg) of 36 ± 2 mg. The Vaginal weight ([5]; EM-800 50 μg) was 15 ± 1 mg, the Uterine weight ([5]; EM-800 100 μg) was 32 ± 1 mg and the Vaginal weight ([5]; EM-800 100 μg) was 11 ± 1 mg. The “Function as SERM” value [6] was “found to function as SERMs” and the “Estrogenic activity in breast and endometrial tissues” value ([6]; physiological or pharmacological concentrations) was “do not have any estrogenic activity”.
In the case of `Cc1c(-c2ccc(O)cc2)n(Cc2ccc(OCCN3CCCCC3)cc2)c2ccc(O)cc12` [ERA-923], the IC50 (MCF-7 cells; Homo sapiens, MCF7, read-out: Inhibition of 1nM E2 stimulation of DNA by tested compounds IC50) is reported as 3.68 nM, the “Maximal stimulation of DNA by tested compounds” value (MCF-7 cells) is reported as “N.S” and the “Inhibition of estrone-stimulated uterine weight” value ([7]; 1 μg daily oral) is reported as 12%. The “Inhibition of estrone-stimulated uterine weight” value ([7]; 3 μg daily oral) was 47%, the “Inhibition of estrone-stimulated vaginal weight” value ([7]; 3 μg daily oral) was 16% and the “Inhibition of estrone-stimulated uterine weight” value ([7]; 10 μg daily oral) was 74%. For the same compound, the “Inhibition of estrone-stimulated vaginal weight” value ([7]; 10 μg daily oral) was 56%, the “Inhibition of estrone-stimulated uterine weight” value ([7]; 30 μg daily oral) was 94% and the “Inhibition of estrone-stimulated vaginal weight” value ([7]; 30 μg daily oral) was 93%. The Uterine weight ([7]; OVX + E1 + ERA-923 1 μg) was 105.5 ± 6.1 mg, the Vaginal weight ([7]; OVX + E1 + ERA-923 1 μg) was 54.2 ± 3.0 mg and the Uterine weight ([7]; OVX + E1 + ERA-923 3 μg) was 69.7 ± 4.4 mg. The Vaginal weight ([7]; OVX + E1 + ERA-923 3 μg) was 47.2 ± 1.6 mg, the Uterine weight ([7]; OVX + E1 + ERA-923 10 μg) was 42.1 ± 2.7 mg and the Vaginal weight ([7]; OVX + E1 + ERA-923 10 μg) was 31.1 ± 2.3 mg. It also gave a Uterine weight ([7]; OVX + E1 + ERA-923 30 μg) of 21.7 ± 1.7 mg, a Vaginal weight ([7]; OVX + E1 + ERA-923 30 μg) of 16.7 ± 1.8 mg and a Uterine weight [7, 11] of 18.3 ± 1.2 mg. It also gave a Vaginal weight [7, 11] of 14.1 ± 1.2 mg, a Uterine weight [7, 12] of 17.7 ± 1.6 mg and a Vaginal weight [7, 12] of 15.3 ± 2.0 mg. The “Stimulatory effect on uterine weight” value [7, 13] was “no significant stimulatory effect”, the “Stimulatory effect on vaginal weight” value [7, 13] was “no significant stimulatory effect” and the “Reversal of the fat increase induced by estrogen deficiency” value ([8]; OVX rats) was 75%. The “Serum ALP” value ([8]; OVX rats) was 85 ± 6 IU, the Serum cholesterol ([8]; OVX rats) was 1.15 ± 0.05 mmol/L and the Total fat ([8]; OVX rats) was 28.0 ± 1.8 %. The “Lumbar spine BMD” value [8, 14] was 0.2252 ± 0.0058 g/cm^2, the “Lumbar spine, Prevention of Bone Loss” value [8, 14] was 49% and the “OVX-induced increase on serum cholesterol levels” value ([8]; alone or in combination with Premarin) was “completely prevented”.
With `CC1=C(c2ccc(O)cc2)[C@H](c2ccc(OCCN3CCCCC3)cc2)Oc2cc(O)ccc21` [EM-652] the concentration at 6 months [9] was 0.4 ng/mL.
